For 20 compounds, GI50 results are on record in US20250136619A1, “HETEROBIFUNCTIONAL COMPOUNDS AND THEIR USE IN TREATING DISEASE” (HALDA THERAPEUTICS OPCO, INC., priority 2021, published 2025).

Read-outs that look alike come from different tables or passages of the source.

One experiment relates to HEK293 cells. The experiment is described as follows: Cellular growth inhibition assay (CellTiter-Glo), HEK293 cells. Format: cell-based. The conditions noted are these: HEK293 cells, three days of compound treatment, CellTiter-Glo 2.0, read-out: CTG HEK293 GI50. As for the experimental part:
(§1) HEK293 and HeLa cells were cultured in DMEM medium supplemented with 10% fetal bovine serum and 1% Penn/Strep. Cells were seeded in white 384-well plates at 500 cells/well in […] complete medium. Following seeding, plates were spun at 300×g for three minutes and cultured at 37° C. with 5% CO2 in a humidified tissue culture incubator.
(§2) After 24 hours, compounds were titrated in 100% DMSO and diluted in complete cell culture medium. […] of compound/media mixture was added to cells to bring total volume in well to […]. DMSO alone was used as a negative control. Plates were then spun at 300×g for three minutes and stored at 37° C. with 5% CO2 for three days.
(§3) On Day 0 and Day 3 of compound treatment, cell viability was quantified with CellTiter-Glo 2.0 reagent (Promega). After equilibrating microplates at room temperature for 30 minutes, 25 μL CellTiter-Glo 2.0 reagent was dispensed into each well to bring total volume to […]. Plates were mixed on shaker for 2 minutes at 500 rpm, followed by a 10-minute incubation at room temperature. Following a quick spin, luminescence readings were measured with an En Vision Plate Reader. Data was normalized to DMSO treated Day 0 and Day 3 readings. A four-parameter non-linear regression curve fit was applied to dose-response data in GraphPad Prism data analysis software to determine the half maximal growth inhibitory concentration (GI50) for each compound.
On the technique in general: ATP-based viability assays read luminescence as a measure of living cells.

For a further experiment, the system named is HeLa cells. The experiment in a line: Cellular growth inhibition assay (CellTiter-Glo), HeLa cells. The conditions noted are these: HeLa cells, three days of compound treatment, CellTiter-Glo 2.0, read-out: CTG HELA GI50. Format: cell-based. As to the method:
as §1, §2, §3

In general, GI50 refers to the concentration giving 50% growth inhibition. On to `CCc1cnn2c(NCc3ccc(OCCOCCOCCOCCOCCOCCOCCOC/C=C/C(=O)N4CCC[C@@H](n5nc(-c6ccc(Oc7ccccc7)cc6)c6c(N)ncnc65)C4)nc3)cc(N3CCCC[C@H]3CCO)nc12` [Compound I-45], for which the GI50 lay within 500 to 1500 nM in the experiment on HEK293 cells (Homo sapiens, 72 h) and 500 to 1500 nM in the experiment on HeLa cells (Homo sapiens, 72 h).

In the case of `CCc1cnn2c(NCc3ccc(OCCOCCOCCOCCOCCOCCOCCN(C)C/C=C/C(=O)N4CCC[C@@H](n5nc(-c6ccc(Oc7ccccc7)cc6)c6c(N)ncnc65)C4)nc3)cc(N3CCCC[C@H]3CCO)nc12` [Compound I-46], the GI50 in the experiment with HEK293 cells (Homo sapiens, 72 h) fell in the range of 1500 to 5000 nM; in the experiment on HeLa cells (Homo sapiens, 72 h), 1500 to 5000 nM.

Turning to `C=CC(=O)N1CCN([C@@H](CC2CC2)c2ccc([C@H](C)Nc3ncc4c(n3)N(CCOCCOCCOCCOCCOc3ccc(CNc5cc(N6CCCC[C@H]6CCO)nc6c(CC)cnn56)cn3)C(=O)OC4)cc2)CC1` [Compound I-57], the 50% growth inhibitory concentration (GI50) was less than 500 nM in the experiment on HEK293 cells (Homo sapiens, 72 h) and less than 500 nM with HeLa cells (Homo sapiens, 72 h).

As to `C=CC(=O)N1CCN([C@@H](CC2CC2)c2ccc([C@H](C)Nc3ncc4c(n3)N(CCOCCOCCOCCOCCn3cc(CNc5cc(N6CCCC[C@H]6CCO)nc6c(CC)cnn56)ccc3=O)C(=O)OC4)cc2)CC1` [Compound I-58], the GI50 in the experiment on HEK293 cells (Homo sapiens, 72 h) was 500 to 1500 nM; in the experiment with HeLa cells (Homo sapiens, 72 h), less than 500 nM.

In the case of `C=CC(=O)N1CCN([C@@H](CC2CC2)c2ccc([C@H](C)Nc3ncc4c(n3)N(CCOCCOCCOCCOCCOCCOCCON(C)C(=O)N3N=C(c5cc(F)ccc5F)SC3(CCCN)c3ccccc3)C(=O)OC4)cc2)CC1` (stereo partly shown) [Compound I-60], the 50% growth inhibitory concentration (GI50) is 1500 to 5000 nM in the experiment with HEK293 cells (Homo sapiens, 72 h) and 500 to 1500 nM with HeLa cells (Homo sapiens, 72 h).

For the compound `C=CC(=O)N1CCN([C@@H](CC2CC2)c2ccc([C@H](C)Nc3ncc4c(n3)N(CCOCCOCCOCCOCCOCCOCCOCCOCCON(C)C(=O)N3N=C(c5cc(F)ccc5F)SC3(CCCN)c3ccccc3)C(=O)OC4)cc2)CC1` (stereo partly shown) [Compound I-61], the GI50 is 1500 to 5000 nM in the experiment on HEK293 cells (Homo sapiens, 72 h) and 500 to 1500 nM in the experiment with HeLa cells (Homo sapiens, 72 h).

As to `CN(C/C=C/C(=O)N1CCC[C@@H](n2nc(-c3ccc(Oc4ccccc4)cc3)c3c(N)ncnc32)C1)CCOCCOCCOCCOCCOCCOCCNS(=O)(=O)c1ccc(Nc2ncc(Br)c(Nc3cccc(F)c3C(N)=O)n2)cc1` [Compound I-65, 2-[[2-[4-[2-[2-[2-[2-[2-[2-[2-[[(E)-4-[(3R)-3-[4-amino-3-(4-phenoxyphenyl)pyrazolo[3,4-d]pyrimidin-1-yl]-1-piperidyl]-4-oxo-but-2-enyl]-methyl-amino]ethoxy]ethoxy]ethoxy]ethoxy]ethoxy]ethoxy]ethylsulfamoyl]anilino]-5-bromo-pyrimidin-4-yl]amino]-6-fluoro-benzamide], the GI50 in the experiment with HEK293 cells (Homo sapiens, 72 h) was greater than 5000 nM; in the experiment on HeLa cells (Homo sapiens, 72 h), 1500 to 5000 nM.

As to `CCc1cnn2c(NCc3ccc(OCCCCCn4c(C#N)ccc(N[C@@H](C)c5cc6cc(Cl)ccc6[nH]c5=O)c4=O)nc3)cc(N3CCCC[C@H]3CCO)nc12` [Compound I-89], the GI50 in the experiment with HEK293 cells is 1500 to 5000 nM; in the experiment with HeLa cells, less than 500 nM.

As to `CCc1cnn2c(NCc3ccc(OCCCCCOc4nc(C#N)ccc4N[C@@H](C)c4cc5cc(Cl)ccc5[nH]c4=O)nc3)cc(N3CCCC[C@H]3CCO)nc12` [Compound I-90, 5-[[(1S)-1-(6-chloro-2-oxo-1H-quinolin-3-yl)ethyl]amino]-6-[5-[5-[[[3-ethyl-5-[(2S)-2-(2-hydroxyethyl)-1-piperidyl]pyrazolo[1,5-a]pyrimidin-7-yl]aminomethyl]-2-pyridyl]oxy]pentoxy]pyridine-2-carbonitrile], the GI50 in the experiment with HEK293 cells and in the experiment with HeLa cells was less than 500 nM each time.

For the compound `CCc1cnn2c(NCc3ccc(OCCOCCOCCCCCn4c(C#N)ccc(N[C@@H](C)c5cc6cc(Cl)ccc6[nH]c5=O)c4=O)nc3)cc(N3CCCC[C@H]3CCO)nc12` [Compound I-91], the GI50 in the experiment on HEK293 cells and in the experiment on HeLa cells was less than 500 nM in each case.

Regarding `CCc1cnn2c(NCc3ccc(OCCOCCOCCOCCOCCNS(=O)(=O)c4cc(F)cc(N(C(=O)[C@@H]5CCC(=O)N5c5cc(C#N)ccn5)C(C(=O)NC5CC(F)(F)C5)c5ccccc5Cl)c4)nc3)cc(N3CCCC[C@H]3CCO)nc12` (stereo partly shown) [Compound I-94], the GI50 in the experiment with HEK293 cells lay within 1500 to 5000 nM; with HeLa cells it was 500 to 1500 nM.

`CCc1cnn2c(NCc3ccc(=O)n(CCOCCOCCOCCOCCNS(=O)(=O)c4cc(F)cc(N(C(=O)[C@@H]5CCC(=O)N5c5cc(C#N)ccn5)C(C(=O)NC5CC(F)(F)C5)c5ccccc5Cl)c4)c3)cc(N3CCCC[C@H]3CCO)nc12` (stereo partly shown) [Compound I-95]: the GI50 lay in the range of 1500 to 5000 nM with HEK293 cells and 500 to 1500 nM in the experiment with HeLa cells.

Regarding `CCc1cnn2c(NCc3ccc(OCCOCCOCCCc4cc(-c5cnc([C@H](C)Nc6nccc(N7C(=O)OC[C@@H]7[C@H](C)F)n6)cc5C)cc(C(F)(F)F)n4)nc3)cc(N3CCCC[C@H]3CCO)nc12` [Compound I-99], the GI50 in the experiment with HEK293 cells and with HeLa cells was less than 500 nM each time.

In the case of `CCc1cnn2c(NCc3ccc(=O)n(CCOCCOCCCc4cc(-c5cnc([C@H](C)Nc6nccc(N7C(=O)OC[C@@H]7[C@H](C)F)n6)cc5C)cc(C(F)(F)F)n4)c3)cc(N3CCCC[C@H]3CCO)nc12` [Compound I-100, (4R)-3-[2-[[(1S)-1-[5-[2-[3-[2-[2-[5-[[3-ethyl-5-[(2S)-2-(2-hydroxyethyl)-1-piperidyl]pyrazolo[1,5-a]pyrimidin-7-yl]aminomethyl]-2-oxo-1-pyridyl]ethoxy]ethoxy]propyl]-6-(trifluoromethyl)-4-pyridyl]-4-methyl-2-pyridyl]ethyl]amino]pyrimidin-4-yl]-4-[(1S)-1-fluoroethyl]oxazolidin-2-one], the GI50 in the experiment with HEK293 cells (Homo sapiens, 72 h) is less than 500 nM; in the experiment on HeLa cells (Homo sapiens, 72 h), less than 500 nM.

Take `CCc1cnn2c(NCc3ccc(OCCCc4cc(-c5cnc([C@H](C)Nc6nccc(N7C(=O)OC[C@@H]7[C@H](C)F)n6)cc5C)cc(C(F)(F)F)n4)nc3)cc(N3CCCC[C@H]3CCO)nc12` [Compound I-101]: the GI50 with HEK293 cells and with HeLa cells was less than 500 nM each time.

For the compound `CCc1cnn2c(NCc3ccc(OCCOCCOCCOCCOCCCc4cc(-c5cnc([C@H](C)Nc6nccc(N7C(=O)OC[C@@H]7[C@H](C)F)n6)cc5C)cc(C(F)(F)F)n4)nc3)cc(N3CCCC[C@H]3CCO)nc12` [Compound I-102], the GI50 in the experiment on HEK293 cells and with HeLa cells was less than 500 nM throughout.

Consider `CCc1cnn2c(NCc3ccc(=O)n(CCOCCOCCOCCOCCCc4cc(-c5cnc([C@H](C)Nc6nccc(N7C(=O)OC[C@@H]7[C@H](C)F)n6)cc5C)cc(C(F)(F)F)n4)c3)cc(N3CCCC[C@H]3CCO)nc12` [Compound I-103], for which the GI50 in the experiment on HEK293 cells and with HeLa cells was 500 to 1500 nM in each case.

For the compound `CCNC(=O)C[C@@H]1N=C(c2ccc(OCCOCCOCCOCCOCCNS(=O)(=O)c3cc(F)cc(N(C(=O)[C@@H]4CCC(=O)N4c4cc(C#N)ccn4)C(C(=O)NC4CC(F)(F)C4)c4ccccc4Cl)c3)cc2)c2c(sc(C)c2C)-n2c(C)nnc21` (stereo partly drawn) [Compound I-104, (2S)—N-[1-(2-chlorophenyl)-2-[(3,3-difluorocyclobutyl)amino]-2-oxo-ethyl]-1-(4-cyano-2-pyridyl)-N-[3-[2-[2-[2-[2-[2-[4-[(9S)-9-[2-(ethylamino)-2-oxo-ethyl]-4,5, 13-trimethyl-3-thia-1,8,11,12-tetrazatricyclo[8.3.0.0^2,6]trideca-2 (6),4,7,10,12-pentaen-7-yl]phenoxy]ethoxy]ethoxy]ethoxy]ethoxy]ethylsulfamoyl]-5-fluoro-phenyl]-5-oxo-pyrrolidine-2-carboxamide], the GI50 was greater than 5000 nM in the experiment on HEK293 cells (Homo sapiens, 72 h) and greater than 5000 nM in the experiment with HeLa cells (Homo sapiens, 72 h).

On to `CCNC(=O)C[C@@H]1N=C(c2ccc(OCCOCCOCC(=O)N3CC(=O)N(c4cc(C#N)ccn4)[C@H](C(=O)N(c4cc(F)cc(F)c4)[C@H](C(=O)NC4CC(F)(F)C4)c4ccccc4Cl)C3)cc2)c2c(sc(C)c2C)-n2c(C)nnc21` [Compound I-105, (2S)—N-[(1S)-1-(2-chlorophenyl)-2-[(3,3-difluorocyclobutyl)amino]-2-oxo-ethyl]-1-(4-cyano-2-pyridyl)-N-(3,5-difluorophenyl)-4-[2-[2-[2-[4-[(9S)-9-[2-(ethylamino)-2-oxo-ethyl]-4,5,13-trimethyl-3-thia-1,8,11,12-tetrazatricyclo[8.3.0.0^2,6]trideca-2 (6),4,7,10,12-pentaen-7-yl]phenoxy]ethoxy]ethoxy]acetyl]-6-oxo-piperazine-2-carboxamide], for which the GI50 was greater than 5000 nM in the experiment on HEK293 cells (Homo sapiens, 72 h) and greater than 5000 nM in the experiment with HeLa cells (Homo sapiens, 72 h).

For the compound `CCNC(=O)C[C@@H]1N=C(c2ccc(OCCOCCOCCOCCOCC(=O)N3CC(=O)N(c4cc(C#N)ccn4)[C@H](C(=O)N(c4cc(F)cc(F)c4)[C@H](C(=O)NC4CC(F)(F)C4)c4ccccc4Cl)C3)cc2)c2c(sc(C)c2C)-n2c(C)nnc21` [Compound I-106, (2S)—N-[(1S)-1-(2-chlorophenyl)-2-[(3,3-difluorocyclobutyl)amino]-2-oxo-ethyl]-1-(4-cyano-2-pyridyl)-N-(3,5-difluorophenyl)-4-[2-[2-[2-[2-[2-[4-[(9S)-9-[2-(ethylamino)-2-oxo-ethyl]-4,5,13-trimethyl-3-thia-1,8,11,12-tetrazatricyclo[8.3.0.0^2,6]trideca-2 (6),4,7, 10,12-pentaen-7-yl]phenoxy]ethoxy]ethoxy]ethoxy]ethoxy]acetyl]-6-oxo-piperazine-2-carboxamide], the concentration for 50% growth inhibition (GI50) in the experiment on HEK293 cells (Homo sapiens, 72 h) is greater than 5000 nM; with HeLa cells (Homo sapiens, 72 h) it was greater than 5000 nM.
